Reference: patent US4869895A, “Radiolabeled benzazepine” (Hoffmann-La Roche Inc., priority 1988, dated 1989)

Legend:
[1] = target: benzodiazepine (BZ) receptor; experiment: in vitro displacement: prevention of the binding of the compound of formula I; design: species or system rat (male, Sprague-Dawley); conditions: rat cerebral cortical tissue; given in words only
[2] = test system: benzodiazepine (BZ) receptor; experiment: in vitro benzodiazepine receptor binding of the compound of formula I (saturation, rat cerebral cortical tissue); design: species or system rat (male, Sprague-Dawley); conditions: for Bmax / Kd: 60 min incubation, pH 7.7; for Ratio (Specific/nonspecific): concentration of the compound of formula I at Kd, nonspecific with 10^-6 M clonazepam
[3] = test system: BZ receptors in the brain; experiment: in vivo binding of the compound of formula I in mouse cerebral cortex; design: species or system mouse (male, ICR); conditions: mice, tail vein injection
Experimental: In vivo binding of the compound of formula I was determined according to the following procedures. Mice (male, 30 g ICR, Hilltop Farms) were injected via the tail vein with the compound of formula I. Ten or 30 minutes later, the mice were killed, the cerebral cortices of the brains were dissected solubilized, and the radioactivity was determined using standard methods. In order to determine nonspecific binding, some mice were pretreated with 5 mg/kg clonazepam (30 min ip). Specific/nonspecific binding ratios in cerebral cortex were about 2 at 10 minutes. The tissues in these tests were assayed directly without first homogenizing and washing them to reduce nonspecific binding. Therefore, the ratios were true in vivo ratios. Radioactivity was low and specific binding was negligible at 30 minutes.

Cc1ncc2n1-c1ccc(Cl)cc1C(c1ccccc1F)=NC2 [midazolam]
Ki, prevention of binding of the compound of formula I [1]: in the nM range

CCOC(=O)c1ncn2c1CN(C)C(=O)c1cc(F)ccc1-2 [Ethyl-8-fluoro-5,6-dehydro-5-methyl-6-oxo-4H-imidazol-[1,5-a]-1,4[benzodiazepine-3-carboxylate]]
Ki, prevention of binding of the compound of formula I [1]: in the nM range

O=C1CN=C(c2ccccc2Cl)c2cc([N+](=O)[O-])ccc2N1 [clonazepam]
Ki, prevention of binding of the compound of formula I [1]: in the nM range

[3H]c1cc(Cl)cc2c1C1=C(CN=C2c2ccccc2Cl)C(=O)NC1 [compound of formula I, 8-Chloro-6-(2-chlorophenyl)-1,4-dihydropyrrolo-[3,4-d][2]-10-t-benzazepin-3(2H)-one]
Bmax ([2]; 0 °C): 1.36 × 10^-10 mol/mg wet weight
Kd ([2]; 0 °C): 0.18 ± 0.05 nM
Ratio (Specific/nonspecific) ([2]; 0 °C): 12
specific to nonspecific ratios (FIG. 1) ([2]; 37 °C, 0.01 to 10 nM, over a relatively large range of concentrations): high
Bmax ([2]; 37 °C): 1.22 × 10^-10 mol/mg wet weight
Kd ([2]; 37 °C): 0.82 ± 0.03 nM
Ratio (Specific/nonspecific) ([2]; 37 °C): 4
affinity and selectivity for BZ receptors in the brain ([2]; summary statement): high affinity and is a selective ligand for BZ receptors in the brain
Specific/nonspecific binding ratio in cerebral cortex ([3]; 10 minutes, nonspecific: 5 mg/kg clonazepam (30 min ip), tissue not homogenized or washed): about 2
Radioactivity in cerebral cortex ([3]; 30 minutes): low
specific binding in cerebral cortex ([3]; 30 minutes): negligible
